According to paper PMC12314576, “The Actin‐Binding Prolyl‐Isomerase Par17 Sustains Its Substrate Selectivity by Interdomain Allostery” (Proteins, 2025):
Starred links: 1 amine or outer side, 2 acyl side, 3 side chain; linkers in the order of their positions; H or OH if unused. Residues, ends and D or L forms follow the SMILES beside them. *: point of attachment. pNA = O=[N+]([O-])c1ccc(N*)cc1; Suc = O=C(CCC(=O)[*:2])[*:1]

Experiments:
Par14 (Par17Δ1-25) = molecular target: T1, Par14 (Par17Δ1-25) (Homo sapiens, UniProt Q9Y237); assay: Protease-coupled isomerase assay (PPIase assay) with Par14; type: biochemical; settings: PBS pH 6.8, 10°C, PPIase 2 μM; for k = kobserved - kthermic, Par14 (Par17Δ1-25): α-chymotrypsin 35 μM, substrate 75 μM, absorbance 390 nm, mean ± SD
T1 construct: Comparison of spectra of full‐length parvulin proteins and PPIase domain; GST-His6 (PreScission site) (N, cleaved yes); made in house; host or cells: E. coli BL21 (DE3) T1r
Protocol: (§1) To determine the catalytic efficiency and substrate specificity of Par14 and Par17, we performed a protease‐coupled assay. In this assay, the trans form of a para‐nitroaniline (pNA) tagged model substrate is cleaved by chymotrypsin, and the resulting change in absorption at 390 nm due to free pNA is measured. When the model substrate is added to the protease‐containing buffer, all trans‐Xaa‐Pro isomers are immediately cleaved by chymotrypsin. Therefore, the extent of the first signal burst observed in the absorption spectrum correlates with the amount of trans isomers of the model substrate formed during the experimental dead time. The remaining cis‐Xaa substrates now start to isomerize by thermal (in the absence of PPIase) or catalytic reaction (in the presence of PPIase). The newly formed trans‐Xaa substrates are immediately cleaved, and isomerization can thus be monitored over time (Figure 2). Eighteen different substrate peptides with varying amino acids at the Xaa position (Suc‐Ala‐Xaa‐Pro‐Phe‐pNa) were measured to determine the isomerase activity and substrate selectivity of Par14 (Par17Δ1–25), Par17, and the catalytic domain (Par17Δ1–60) (Table S1). The catalytic efficiency is obtained from the observed isomerization curves by calculating the difference between the rate constant in the presence of enzyme and the rate constant obtained from thermal isomerization.
(§2) We determined the isomerase activity using the PPIase assay described by. The lyophilized peptides were dissolved in an adequate volume of 0.5 mM‐LiCl/TFE buffer to obtain a 15 mM stock solution. To achieve a stable cis/trans ratio the mixture was incubated overnight at 4°C. The next day a stock solution of 350 μM α‐chymotrypsin in PBS was incubated on ice for at least 20 min. For measurements without PPIase PBS buffer (pH 6.8) was mixed with α‐chymotrypsin to a final concentration of 35 μM in 1 mL. A baseline was recorded for 5 min (Cary 100Bio UV/Vis spectrophotometer, Varian/Agilent, Santa Clara, US, λ: 390 nm, bandwidth: 1.0 nm, average time between measurements: 0.5 s, temperature: 10°C). After 5 min the substrate peptide was added to a final concentration of 75 μM in 1 mL [59]. The solution was mixed by inverting the cuvette three times and the reaction was recorded for 15 min. Measurements in the presence of PPIase were performed in the same way, except that before the baseline measurement, the appropriate isomerase was added in a final concentration of 2 μM in 1 mL in addition to PBS and α‐chymotrypsin.
(§3) For the data analysis, a mean value of the baseline was subtracted (average of the first 200 data points). The measured values were normalized according to the respective maximum of the measurement. To determine the rate constant, the program graph pad was used, and non‐linear curve fitting was applied for each measurement (exponential, one‐phase association). (1) Y=Y0+Plateau−Y0∙1−e^−K∙x
(§4) where x is the time (min), Y is the absorbance, Y 0 is the absorbance when x = 0, Plateau is the Y value at infinite times, K is the rate constant (min^−1).
(§5) The K cat/K M value was calculated according to Equation (2): (2) kcat/KM=kobs−ktherm/PPIase where k cat/K M is the catalytic efficiency (M^−1 s^−1), k obs, rate constant of the observed reaction (s^−1), k therm is the rate constant of the thermic reaction (s^−1), and [PPIase] is the concentration of PPIase used in the assay (M).
(§6) The obtained data are fitted to Equation (2) using a pseudo first‐order assumption. This is the case, if k obs values behave linearly with rising PPIase concentrations.

[1] = molecular target: T2, PPIase domain (Par17Δ1-60) (Homo sapiens, UniProt Q9Y237); assay: Protease-coupled isomerase assay (PPIase assay) with the catalytic domain; type: biochemical; settings: PBS pH 6.8, 10°C, PPIase 2 μM; for k = kobserved - kthermic, PPIase domain (Par17Δ1-60): α-chymotrypsin 35 μM, substrate 75 μM, absorbance 390 nm, mean ± SD
T2 construct: GST-His6 (PreScission site) (N, cleaved yes); made in house; host or cells: E. coli BL21 (DE3) T1r
Protocol: as §1, §2, §3, §4, §5, §6

Par17 [2] = molecular target: T3, Par17 (Homo sapiens, UniProt Q9Y237); assay: Protease-coupled isomerase assay (PPIase assay) with Par17; type: biochemical; settings: PBS pH 6.8, 10°C, PPIase 2 μM; for k = kobserved - kthermic, Par17: α-chymotrypsin 35 μM, substrate 75 μM, absorbance 390 nm, mean ± SD
T3 construct: full‐length Par17 and the N‐terminus of Par17; GST-His6 (PreScission site) (N, cleaved yes); Gly-Pro remnant of the PreScission site (Gly stands at position 1 in place of Met1); made in house; host or cells: E. coli BL21 (DE3) T1r
Protocol: as §1, §2, §3, §4, §5, §6

Par17 [3] = molecular target: T3, Par17; assay: NMR titration of substrate peptides to 15N-labeled full-length Par17; type: binding; settings: 300 μM Par17, KPi pH 6.7, 20°C
Protocol: The amide signals were assigned and combined chemical shift changes between the signals of free and substrate‐bound isomers were calculated.
For NMR measurements, purified and concentrated proteins in salt‐free buffers were mixed with 10% D2O and 1 μL DSS standard. Spectra were measured on an ultra shield 700‐NMR (Bruker, Billerica, US) with a triple resonance cryoprobe (700 MHz). For recording and processing of data, the software Topspin 3.5 was used. Analysis of spectra was carried out using Cara analysis software 2.3.1 (Rochus L.J. Keller) and/or CcpNmr Analysis 2.3.1 (Department of Molecular and Cell Biology, University of Leicester, UK).
Titration of substrate peptides to ^ 15 N‐labeled full‐length Par17 and the N‐terminus of Par17: The following substrate peptides were diluted in salt‐free 50 mM KPi buffer pH 6.7 to a concentration of 15 mM (Suc: Succinyl, pNA: para‐Nitroanilin):
They were added stepwise to 200 μL of the labeled parvulins (300 μM in 50 mM KPi buffer pH 6.7). Spectra were recorded with the pulse program Best‐TROSY at 20°C. Combined chemical shifts were calculated as described. Microscopic dissociation constant K D was fitted with the following equation (assuming a 1:1 binding model): (4) ∆δ=∆δmax·P+x+KD−P+x+KD^2−4·x·P/2·P
where ∆δmax is the amplitude, P is the protein concentration, X is the concentration of the peptide.
Differences in chemical shift changes could be measured up to 0.001 ppm (error in peak picking). Changes were interpreted as significant if Δ > 0.004 ppm and when appearing consecutively in a linear sequence element.
The microscopic K D describes the binding affinity of the ligand to a single side of an amino acid.

[4] = Table ST1, (kobs−ktherm)/[PPIase]

T2 sequence (Q9Y237 36-131, stated change not applied): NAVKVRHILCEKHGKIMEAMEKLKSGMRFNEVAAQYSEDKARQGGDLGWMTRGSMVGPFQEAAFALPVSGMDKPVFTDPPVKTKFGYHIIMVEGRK
T1 sequence (Q9Y237 whole entry, stated change not applied, the tested form may be a part): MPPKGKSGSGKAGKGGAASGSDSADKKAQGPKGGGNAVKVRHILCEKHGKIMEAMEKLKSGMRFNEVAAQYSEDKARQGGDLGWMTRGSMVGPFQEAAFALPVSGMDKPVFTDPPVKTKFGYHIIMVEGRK
T3 sequence (Q9Y237 1-156 isoform Q9Y237-2): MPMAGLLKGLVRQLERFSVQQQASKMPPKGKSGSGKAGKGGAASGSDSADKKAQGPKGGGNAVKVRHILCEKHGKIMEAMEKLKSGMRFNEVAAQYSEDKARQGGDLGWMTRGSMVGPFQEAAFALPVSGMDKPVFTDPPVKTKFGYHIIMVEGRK

C[C@H](NC(=O)CCC(=O)O)C(=O)NCC(=O)N1CCC[C@H]1C(=O)N[C@@H](Cc1ccccc1)C(=O)Nc1ccc([N+](=O)[O-])cc1 [Gly, Suc‐Ala‐Gly‐Pro‐Phe‐pNa] (Suc-AGPF-pNA)
k = kobserved - kthermic, Par14 (Par17Δ1-25) (Par14 (Par17Δ1-25)): 0.390 ± 0.457 min⁻¹ | k = kobserved - kthermic, PPIase domain (Par17Δ1-60) [1]: 0.275 ± 0.214 min⁻¹ | k = kobserved - kthermic, Par17 (Par17 [2]): <0.01 ± 0.029 min⁻¹ | Combined chemical shift perturbation of full length Par17, 113G (Par17 [3]; peptide 0,35 mM): 0,014 ppm | Combined chemical shift perturbation of full length Par17, 116V (Par17 [3]; peptide 0,35 mM): 0,038 ppm | Combined chemical shift perturbation of full length Par17, 119F (Par17 [3]; peptide 0,35 mM): 0,012 ppm | Combined chemical shift perturbation of full length Par17, 113G (Par17 [3]; peptide 3 mM): 0,116 ppm | Combined chemical shift perturbation of full length Par17, 115M (Par17 [3]; peptide 3 mM): 0,06 ppm | Combined chemical shift perturbation of full length Par17, 116V (Par17 [3]; peptide 3 mM): 0,302 ppm | Combined chemical shift perturbation of full length Par17, 119F (Par17 [3]; peptide 3 mM): 0,084 ppm | Combined chemical shift perturbation of full length Par17, 113G (Par17 [3]; peptide 5 mM): 0,157 ppm | Combined chemical shift perturbation of full length Par17, 115M (Par17 [3]; peptide 5 mM): 0,081 ppm | Combined chemical shift perturbation of full length Par17, 116V (Par17 [3]; peptide 5 mM): 0,412 ppm | Combined chemical shift perturbation of full length Par17, 119F (Par17 [3]; peptide 5 mM): 0,113 ppm | Combined chemical shift perturbation of full length Par17, 113G (Par17 [3]; peptide 1,5 mM): 0,066 ppm | Combined chemical shift perturbation of full length Par17, 115M (Par17 [3]; peptide 1,5 mM): 0,035 ppm | Combined chemical shift perturbation of full length Par17, 116V (Par17 [3]; peptide 1,5 mM): 0,173 ppm | Combined chemical shift perturbation of full length Par17, 119F (Par17 [3]; peptide 1,5 mM): 0,05 ppm

Suc-Ala-Ser-Pro-Phe-pNa [model substrate peptide, Xaa = Ser]
kcat/KM, Par14 (Par17Δ1-25) (Par14 (Par17Δ1-25); [4]): 2.7 M^-1·s^-1 · 10^3 | k = kobserved - kthermic, Par14 (Par17Δ1-25) (Par14 (Par17Δ1-25)): 0.332 ± 0.054 min⁻¹ | kcat/KM, PPIase domain (Par17Δ1-60) [1, 4]: 2.7 M^-1·s^-1 · 10^3 | k = kobserved - kthermic, PPIase domain (Par17Δ1-60) [1]: 0.327 ± 0.273 min⁻¹ | kcat/KM, Par17 (Par17 [2]; [4]): <0.1 M^-1·s^-1 · 10^3 | k = kobserved - kthermic, Par17 (Par17 [2]): <0.01 ± 0.098 min⁻¹
